Measured values as given in the supplement of paper PMC10307832.

Assays:
Ponatinib + Trametinib = compound: Cc1ccc(C(=O)Nc2ccc(CN3CCN(C)CC3)c(C(F)(F)F)c2)cc1C#Cc1cnc2cccnn12 [Ponatinib] + CC(=O)Nc1cccc(-n2c(=O)n(C3CC3)c(=O)c3c(Nc4ccc(I)cc4F)n(C)c(=O)c(C)c32)c1 [Trametinib] (partner 0.02 µM); experiment: relative viability (nuclei count vs DMSO), 5 days (fraction); higher = more cells survive
Summary of the method: (§1)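 Lung cancer cell lines in 1536-well plates got either a single drug or a fixed anchor-drug dose together with five library-drug doses (not always all listed) in √10 steps, by pin tool, on the day after seeding. Nuclei were counted after 5 days, and relative viability is the treated-to-vehicle ratio of nuclei counts. Values are medians of duplicate plates.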

Pazopanib + Dasatinib = compound: Cc1ccc(Nc2nccc(N(C)c3ccc4c(C)n(C)nc4c3)n2)cc1S(N)(=O)=O [Pazopanib] + Cc1nc(Nc2ncc(C(=O)Nc3c(C)cccc3Cl)s2)cc(N2CCN(CCO)CC2)n1 [Dasatinib] (partner 0.075 µM); experiment: as above
Summary of the method: as §1

Cell Line	relative viability (Ponatinib + Trametinib; first compound 0.002 µM)	relative viability (Ponatinib + Trametinib; first compound 0.006325 µM)	relative viability (Ponatinib + Trametinib; first compound 0.06325 µM)	relative viability (Ponatinib + Trametinib; first compound 0.2 µM)	relative viability (Pazopanib + Dasatinib; first compound 0.01 µM)	relative viability (Pazopanib + Dasatinib; first compound 0.03162 µM)	relative viability (Pazopanib + Dasatinib; first compound 0.1 µM)	relative viability (Pazopanib + Dasatinib; first compound 0.3162 µM)	relative viability (Pazopanib + Dasatinib; first compound 1 µM)
HCC-44	1	1.02	1.05	1.06					
HCC-827	0.526	0.558	0.558	0.459	0.286	0.27	0.284	0.399	0.324
NCI-H1623					0.507	0.467	0.509	0.488	0.608
NCI-H2405	0.557	0.611	0.435	0.342	0.222	0.227	0.147	0.256	0.249
PC-3 [JPC-3]		0.769	0.88	0.699	0.991	0.939	1.11	0.939	0.983
NCI-H1651	0.825	0.827	0.918	0.809	0.371	0.46	0.397	0.436	0.5
HARA	0.633	0.581	0.633	0.443	0.23	0.341	0.241	0.248	0.337
NCI-H1650	0.583	0.543	0.801	0.474	0.301	0.375	0.381	0.319	0.403
NCI-H1793	0.395	0.511	0.344	0.347		0.357	0.412	0.372	0.533
NCI-H2347	0.241	0.272	0.332	0.264	0.27	0.307	0.303	0.353	0.331
LU99A	0.476	0.554	0.342	0.305	0.425	0.545	0.622	0.54	0.503
NCI-H1355	0.378	0.429	0.464	0.47	0.443	0.549	0.773	0.639	0.686
HCC-78	0.684	0.673	0.808	0.638	0.328	0.383	0.362	0.429	0.339
NCI-H1563					0.473	0.451	0.471	0.485	0.5
HCC-15	0.348	0.381	0.446	0.338	0.543	0.631	0.612	0.67	0.692
EKVX	0.328	0.338	0.424	0.362	0.63	0.53	0.54	0.592	0.601
NCI-H2087	0.217	0.201	0.131	0.153	0.743	0.989	0.929	1.01	0.72
LK-2	0.787	0.666	0.746	0.587		0.305	0.317	0.373	0.314
NCI-H1437	0.413	0.496	0.741	0.613	0.399	0.465	0.353	0.396	0.723

Cell Line	relative viability (Ponatinib + Trametinib; first compound 0.002 µM)	relative viability (Ponatinib + Trametinib; first compound 0.006325 µM)	relative viability (Ponatinib + Trametinib; first compound 0.06325 µM)	relative viability (Ponatinib + Trametinib; first compound 0.2 µM)	relative viability (Pazopanib + Dasatinib; first compound 0.01 µM)	relative viability (Pazopanib + Dasatinib; first compound 0.03162 µM)	relative viability (Pazopanib + Dasatinib; first compound 0.1 µM)	relative viability (Pazopanib + Dasatinib; first compound 0.3162 µM)	relative viability (Pazopanib + Dasatinib; first compound 1 µM)
COR-L23	0.526	0.593	0.372	0.387	0.512	0.503	0.553	0.449	0.56
ABC-1					0.481	0.635		0.551	0.637
NCI-H522	0.739	0.876	0.594	0.629	0.614	0.865	0.968	0.897	0.918
PC-14	0.701	0.727	0.859	0.794	0.27	0.241	0.288	0.267	0.266
SW 900	1	0.967	0.762	0.873	0.539	0.731	0.596	0.66	0.543
A-427	0.79	0.732	0.719	0.531	0.652	0.72	0.614	0.694	0.701
NCI-H1792	0.312	0.546	0.54	0.403		0.728	0.681	0.834	0.774
LCLC-97TM1	0.186	0.208	0.168	0.162	0.771	0.854	0.888	0.847	0.785
LCLC-103H	0.678	0.718	0.673	0.579	0.314	0.472	0.495	0.451	0.459
RERF-LC-KJ	0.826	0.803	1.03	0.852	0.836	0.773	0.915	0.722	0.765
BEN	1.02	0.967	0.982	0.768		0.343	0.267	0.318	0.38
NCI-H1666	0.83	0.786	0.827	0.777	0.854	0.833	0.801	0.864	0.772
LC-2-ad	0.809	0.822	0.62	0.533	0.445	0.555	0.575	0.792	0.535
SW 1573	0.6	0.595	0.591	0.577	0.588	0.717	0.621	0.451	0.561
ChaGo-K-1	0.863	0.907	0.914	0.815	0.554	0.622	0.591	0.515	0.7
COR-L 105	0.429	0.479	0.473	0.457	0.351	0.296	0.327	0.453	0.406
NCI-H1975	0.367	0.445	0.469	0.294	0.371	0.359	0.336	0.415	0.359
NCI-H1993	0.539	0.506	0.64	0.572		0.6	0.542	0.588	0.582
SK-LU-1	0.469	0.554	0.393	0.347	0.142	0.179	0.192	0.189	0.174
